The source of these data is ChEMBL document CHEMBL3872201, “Synthesis and antiproliferative activity of a natural like glycoconjugate polycyclic compound” (2016).

As a reminder, the inhibition is the percentage by which the read-out fell short of the control.

This assay can be described thus: Cytotoxicity against human MDA-MB-231 cells assessed as inhibition of cell viability at 5 uM after 48 hrs by MTT assay relative to control. It counts as functional. To be noted: MDA-MB-231, 48 h.

With `C=C1c2c(C)nn(-c3ccc(OC)cc3)c2N(C)C23CC1C1(C)c4c(C)nn(-c5ccc(OC)cc5)c4N(C)C(C)(CC12)C3` (stereo unspecified), the inhibition at 5 µM was 26%.
